In EP0005015B1, “Use of a xanthine derivate in the manufacture of a medicament” (BEECHAM - WUELFING GmbH & Co. KG, priority 1978, dated 1979):
Where “and” joins values, the source holds several entries; their conditions need not be identical. Equal values may be shown once.

Assays:
[1] = tested on: ischaemic skeletal muscle; test: pO2 measurement in ischaemic skeletal muscle (m. gastrocnemius, femoral artery ligated), Pt-needle electrodes; type: in vivo, Cat
Experimental: (§1) Cats of either sex were anaesthetized with urethane/chloralose (120/60 mg/kg i.p. In the course of the experiments, pentobarbital was injected intravenously (V. antebrachii ceph.) via a plastic tube. The intraduodenal (i.d.) application of compound weas conducted by means of a plastic catheter, which was inserted into the duodenum.
The reference electrode, and Ag/AgCl system was sputtered on the glass mantle of the cathode, or it was a separate electrode. The cathode was coated with a polystyrol and a collodium membrane. A constant voltage supply provided a polarizing voltage between 600 and 800 mV. The reducing current was measured by a nano-ampere amplifying meter. The- cathode was inserted in the tissue by means of a motor-driven micromanipulator.
A p02― electrode was inserted in the muscle tissue (m. gastrocnemius) of both hindlegs of an anaesthetized cat. After recording the p02 of the normal perfused muscle, the blood flow to one measuring site was restricted by ligating the femoral artery. […] After having reached a constant level of p02, the vehicle was given, followed by the test substance.
The mean value and the standard deviation were calculated, in order to check the significance of the effect.

[2] = tested on: skeletal muscle; test: pO2 measurement in the control (non-ligated) hind limb muscle; type: in vivo, Cat; conditions: individual cats
Experimental: A p02― electrode was inserted in the muscle tissue (m. gastrocnemius) of both hindlegs of an anaesthetized cat. After recording the p02 of the normal perfused muscle, the blood flow to one measuring site was restricted by ligating the femoral artery. […] The values were constant after 30 to 60 min. After having reached a constant level of p02, the vehicle was given, followed by the test substance.

[3] = tested on: ischaemic skeletal muscle; test: Skeletal muscle contractility with restricted femoral blood flow; type: in vivo, Cat
Experimental: as §1
Cats of either sex were anaesthetized as for p02 measurement. After dissection of the skin of the calf muscles, the sciatic nerve was cut about 3 cm proximal to the knee. The tendon of the calf muscles was cut and connected with an isometric force transducer (SWEMA, SG 3). In order to maintain constant differences and a resting tension of 100 p, the hind limb was fixed at the tibia by means of a clamp. Direct stimulation of the muscles consisted of square wave pulses of a 4 msec duration at a frequency of 2 Hz and at a voltage of 50 V. In order to keep the muscles wet and at a normal temperature, the muscles were continuously superfused by means of a NaCI-solution (0.9%, 38°C). Femoral blood flow was restricted by a graded occlusion of the artery leading to a reduction of contractility by ca. 30%. After having reached a constant level of the contraction force, the vehicle (NaCI and Methocel®, respectively) was injected, followed by the test substance.

[4] = Blood pressure changes during the contractility experiment; type: in vivo, Cat
[5] = Acute oral toxicity (LD50); conditions: mouse, in vivo; mice, per oral
[6] = Solubility in aqueous media; type: physicochemical

CC(=O)CCCCn1c(=O)c2c(ncn2C)n(C)c1=O [Compound B, pentoxyphylline]
effect of Compound B 5 mg/kg i.v. ΔpO2 (Torr) ([1]; hind limb art. lig., 5 mg/kg i.v., individual cats): 1.3 (p≤0.01) Torr and 1.6 (p≤0.01) Torr and 4.9 (p≤0.01) Torr and 7.3 (p≤0.01) Torr | effect of Compound B in relation to Compound A (%) ([1]; hind limb art. lig., B 5 mg/kg i.v. vs A 125 μg/kg i.v., individual cats): 22.9% and 26.6% and 0% (2×) and 17.9% and 65.6% | pO2 (mmHg) (increase) ([1]; i.d., 12.5 mg/kg): 3 (12.5 mg) mmHg | pO2 (mmHg) (increase) ([1]; i.v., 5 mg/kg): 2 (5 mg) mmHg | effect of Compound B in relation to Compound A (%) ([2]; B 5 mg/kg i.v. vs A 125 μg/kg i.v.): 74.3% and 0% (3×) and 27% | contractility (% initial value) ([3]; i.d., 32 mg/kg): 23 (32 mg) % initial value | contractility (% initial value) ([3]; i.v., 5 mg/kg): 9 (5 mg) % initial value

CCCCn1c(=O)c2c(ncn2CCC(C)=O)n(CCCC)c1=O [Compound C, 1,3-di-butyl-7-(3-oxobutyl)xanthine, reference compound]
pO2 (mmHg) (increase) ([1]; i.d., 32 mg/kg): 6 (32 mg) mmHg | contractility (% initial value) ([3]; i.d., 12.5 mg/kg): 22 (12.5 mg) % initial value

CCCCn1c(=O)c2c(ncn2CC(C)=O)n(CCCC)c1=O [Compound A, 1,3-di-n-butyl-7-(2-oxopropyl)xanthine]
effect of Compound A 125 μg/kg i.v. ΔpO2 (Torr) ([1]; hind limb art. lig., 125 μg/kg i.v., individual cats): 5.6 (p≤0.01) Torr and 6.2 (p≤0.01) Torr and 7.3 (p≤0.01) Torr and 5.2 (p≤0.01) Torr and 27.1 (p≤0.01) Torr and 11.2 (p≤0.01) Torr | pO2 (mmHg) (increase) ([1]; i.d., 50 µg/kg): 4 (50 µg) mmHg | pO2 (mmHg) (increase) ([1]; i.v., 125 µg/kg): 10 (125 µg) mmHg | effect of Compound A 125 μg/kg i.v. ΔpO2 (Torr) ([2]; 125 μg/kg i.v.): 19.3 (p≤0.01) Torr and 3.4 (p≤0.01) Torr and 13.2 (p≤0.01) Torr and 3.8 (p≤0.01) Torr and 3.5 (p≤0.01) Torr | t (min), time interval to reach initial values, muscle contract. ([3]; 50 µg/kg i.v.): >60 min | t (min), time interval to reach initial values, muscle contract. ([3]; 125 µg/kg i.v.): >60 min | t (min), time interval to reach initial values, muscle contract. ([3]; 313 µg/kg i.v., n = 1): >60 min | Δ muscle contract. ([3]; 313 µg/kg i.v., n = 1): +25.0 n = 1 percentage of initial values | contractility (% initial value) ([3]; i.d., 125 µg/kg): 32 (125 µg) % initial value | contractility (% initial value) ([3]; i.v., 50 µg/kg): 36 (50 µg) % initial value | t (min), time interval to reach initial values, initial phase BP decrease ([4]; 50 µg/kg i.v.): 2 min | t (min), time interval to reach initial values, second phase BP increase ([4]; 50 µg/kg i.v.): 33 min | t (min), time interval to reach initial values, initial phase BP decrease ([4]; 125 µg/kg i.v.): 3 min | t (min), time interval to reach initial values, second phase BP increase ([4]; 125 µg/kg i.v.): 32 min | Δ second phase BP increase X̄ ± S ([4]; 125 µg/kg i.v.): +10.8 ± 8.3 percentage of initial values | t (min), time interval to reach initial values, initial phase BP decrease ([4]; 313 µg/kg i.v., n = 1): 2 min | t (min), time interval to reach initial values, second phase BP increase ([4]; 313 µg/kg i.v., n = 1): 6 min | Δ initial phase BP decrease ([4]; 313 µg/kg i.v., n = 1): −25.0 n = 1 percentage of initial values | Δ second phase BP increase ([4]; 313 µg/kg i.v., n = 1): +15.0 n = 1 percentage of initial values | LD50 [5]: > 1000 mg/kg | solubility in aqueous media [6]: only sparingly soluble
